# From ChEMBL document CHEMBL1201862, “PubChem BioAssay data set” (2004)
# Active and inactive are the calls of the source.
# Columns and labels:
# Caspase-3 = target: T1, Caspase-3 (Homo sapiens, UniProt P42574); test: SAR Analysis of small molecule inhibitors of Sentrin-specific proteases (SENPs) using a Caspase-3 Selectivity assay. [Related pubchem assays (depositor defined):AID2540, AID2599, AID434973, AID489001]; type: functional
# T1 sequence (P42574 whole entry): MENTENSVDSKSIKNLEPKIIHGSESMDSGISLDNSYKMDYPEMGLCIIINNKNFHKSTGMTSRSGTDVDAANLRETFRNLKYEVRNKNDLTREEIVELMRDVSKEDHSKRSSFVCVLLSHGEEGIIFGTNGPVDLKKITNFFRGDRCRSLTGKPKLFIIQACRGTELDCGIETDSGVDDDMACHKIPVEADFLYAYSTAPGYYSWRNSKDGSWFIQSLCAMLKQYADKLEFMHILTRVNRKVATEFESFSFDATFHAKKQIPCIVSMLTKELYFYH
# [1] = target: T2, Histone-lysine N-methyltransferase NSD2 (Homo sapiens, UniProt O96028); type: biochemical
# T2 sequence (O96028 whole entry): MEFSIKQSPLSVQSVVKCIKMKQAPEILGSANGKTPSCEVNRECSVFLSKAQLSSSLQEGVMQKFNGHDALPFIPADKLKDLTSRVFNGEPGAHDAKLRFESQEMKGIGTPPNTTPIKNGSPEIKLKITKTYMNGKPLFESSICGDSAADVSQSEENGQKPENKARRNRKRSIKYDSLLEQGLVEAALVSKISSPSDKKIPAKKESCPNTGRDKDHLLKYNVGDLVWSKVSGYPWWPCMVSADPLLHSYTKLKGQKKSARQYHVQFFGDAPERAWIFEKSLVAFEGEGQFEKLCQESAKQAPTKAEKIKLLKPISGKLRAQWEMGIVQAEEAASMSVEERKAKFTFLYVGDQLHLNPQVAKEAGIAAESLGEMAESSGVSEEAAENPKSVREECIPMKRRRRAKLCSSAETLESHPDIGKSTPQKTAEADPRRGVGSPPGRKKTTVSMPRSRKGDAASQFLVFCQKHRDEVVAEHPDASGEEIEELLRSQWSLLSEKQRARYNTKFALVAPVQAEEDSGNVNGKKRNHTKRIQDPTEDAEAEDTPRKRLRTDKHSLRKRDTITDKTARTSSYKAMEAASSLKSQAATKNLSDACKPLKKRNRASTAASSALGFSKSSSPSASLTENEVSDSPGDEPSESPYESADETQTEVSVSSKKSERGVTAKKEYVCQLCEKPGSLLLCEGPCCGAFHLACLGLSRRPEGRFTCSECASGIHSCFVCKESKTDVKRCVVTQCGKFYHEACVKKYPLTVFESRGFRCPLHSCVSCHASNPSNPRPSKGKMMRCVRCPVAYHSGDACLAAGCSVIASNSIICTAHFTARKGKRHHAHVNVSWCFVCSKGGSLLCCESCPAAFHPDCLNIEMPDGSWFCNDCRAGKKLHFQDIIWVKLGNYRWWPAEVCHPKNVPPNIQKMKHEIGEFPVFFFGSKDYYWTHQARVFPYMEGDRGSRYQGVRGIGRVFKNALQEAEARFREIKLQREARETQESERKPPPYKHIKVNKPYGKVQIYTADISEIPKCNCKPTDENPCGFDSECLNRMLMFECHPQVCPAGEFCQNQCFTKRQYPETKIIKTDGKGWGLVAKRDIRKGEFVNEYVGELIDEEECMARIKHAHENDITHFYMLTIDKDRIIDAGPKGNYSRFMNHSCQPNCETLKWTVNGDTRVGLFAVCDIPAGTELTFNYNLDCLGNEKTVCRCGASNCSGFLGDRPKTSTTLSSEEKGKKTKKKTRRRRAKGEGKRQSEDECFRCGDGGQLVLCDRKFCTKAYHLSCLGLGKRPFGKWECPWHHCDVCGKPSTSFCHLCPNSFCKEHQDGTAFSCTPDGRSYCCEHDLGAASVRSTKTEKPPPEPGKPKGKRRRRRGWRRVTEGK
# Genome polyprotein = Genome polyprotein (dengue virus type 2, UniProt P29990); test: flavivirus cap methylation enzyme inhibition – biochemical, confirmation dose response, primary screen (AID 588689); type: functional
# HEK293 = test: optical interference in Abeta FP readout, dose response, artefact control for IDE activator project, biochemical, fluorescence polarization (AID 588442); type: functional, cell-based; settings: Homo sapiens
# [2] = target: Dual specificity protein phosphatase 3 (Homo sapiens, UniProt P51452); test: VHR1 phosphatase inhibitors, biochemical (AID 1878)
# [3] = target: Tyrosine-protein kinase Fyn (Homo sapiens, UniProt P06241); type: functional
# [4] = target: Hepatocyte growth factor receptor (Homo sapiens, UniProt P08581); type: functional;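 further: kinase panel profiling across the kinome, with MET as the panel member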
# [5] = target: Serine/threonine-protein kinase TBK1 (Homo sapiens, UniProt Q9UHD2); test: Navigating the Kinome. Panel member name: TBK1; type: functional
# [6] = target: Serine/threonine-protein kinase PAK 4 (Homo sapiens, UniProt O96013); type: functional;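 further: value obtained within a kinome profiling panel in which PAK4 was one of the panel members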
# [7] = target: 5'-AMP-activated protein kinase catalytic subunit alpha-1 (Homo sapiens, UniProt Q13131); type: functional
# [8] = target: Proto-oncogene tyrosine-protein kinase receptor Ret (Homo sapiens, UniProt P07949); type: functional;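 further: measured within a kinome-wide profiling panel, RET as the panel member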
# [9] = target: Dual specificity protein kinase CLK2 (Homo sapiens, UniProt P49760); type: functional
# [10] = target: Cyclin-dependent kinase 9 (Homo sapiens, UniProt P50750); type: functional;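 further: value from the CDK9 entry of a kinome-spanning kinase panel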
# [11] = target: Serine/threonine-protein kinase Nek2 (Homo sapiens, UniProt P51955); type: functional
# [12] = target: Platelet-derived growth factor receptor beta (Homo sapiens, UniProt P09619); type: functional;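 further: value comes from a kinome panel, with PDGFRB tested as one panel member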
# Platelet-derived growth factor receptor beta, sequence (P09619 whole entry): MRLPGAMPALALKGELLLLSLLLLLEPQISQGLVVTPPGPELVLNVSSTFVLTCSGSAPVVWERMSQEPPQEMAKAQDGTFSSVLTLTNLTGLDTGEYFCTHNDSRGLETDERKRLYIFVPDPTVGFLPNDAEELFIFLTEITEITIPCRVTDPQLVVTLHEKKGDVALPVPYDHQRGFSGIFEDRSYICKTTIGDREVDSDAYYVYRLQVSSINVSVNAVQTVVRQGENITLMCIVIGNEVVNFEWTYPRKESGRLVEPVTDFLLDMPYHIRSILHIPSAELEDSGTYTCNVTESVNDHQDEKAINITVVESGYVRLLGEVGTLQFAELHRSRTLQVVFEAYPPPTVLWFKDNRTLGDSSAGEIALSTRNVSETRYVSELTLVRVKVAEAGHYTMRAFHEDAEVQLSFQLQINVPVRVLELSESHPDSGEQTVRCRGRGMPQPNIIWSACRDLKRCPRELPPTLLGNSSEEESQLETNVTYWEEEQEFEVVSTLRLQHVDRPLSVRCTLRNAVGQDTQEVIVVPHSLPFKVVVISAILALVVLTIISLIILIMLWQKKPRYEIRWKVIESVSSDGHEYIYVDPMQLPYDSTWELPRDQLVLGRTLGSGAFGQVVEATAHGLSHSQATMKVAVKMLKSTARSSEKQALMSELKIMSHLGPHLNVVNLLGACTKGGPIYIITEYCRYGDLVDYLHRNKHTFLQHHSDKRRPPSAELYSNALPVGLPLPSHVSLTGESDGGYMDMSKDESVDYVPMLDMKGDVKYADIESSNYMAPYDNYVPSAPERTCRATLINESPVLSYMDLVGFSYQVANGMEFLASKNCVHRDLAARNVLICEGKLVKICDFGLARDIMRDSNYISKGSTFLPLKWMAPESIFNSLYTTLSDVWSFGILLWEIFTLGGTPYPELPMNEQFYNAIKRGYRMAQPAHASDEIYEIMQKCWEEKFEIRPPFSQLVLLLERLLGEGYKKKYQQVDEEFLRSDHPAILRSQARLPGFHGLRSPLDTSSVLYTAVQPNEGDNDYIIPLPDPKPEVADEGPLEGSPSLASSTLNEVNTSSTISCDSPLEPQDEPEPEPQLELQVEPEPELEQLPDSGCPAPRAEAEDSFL
# Proto-oncogene tyrosine-protein kinase receptor Ret, sequence (P07949 whole entry): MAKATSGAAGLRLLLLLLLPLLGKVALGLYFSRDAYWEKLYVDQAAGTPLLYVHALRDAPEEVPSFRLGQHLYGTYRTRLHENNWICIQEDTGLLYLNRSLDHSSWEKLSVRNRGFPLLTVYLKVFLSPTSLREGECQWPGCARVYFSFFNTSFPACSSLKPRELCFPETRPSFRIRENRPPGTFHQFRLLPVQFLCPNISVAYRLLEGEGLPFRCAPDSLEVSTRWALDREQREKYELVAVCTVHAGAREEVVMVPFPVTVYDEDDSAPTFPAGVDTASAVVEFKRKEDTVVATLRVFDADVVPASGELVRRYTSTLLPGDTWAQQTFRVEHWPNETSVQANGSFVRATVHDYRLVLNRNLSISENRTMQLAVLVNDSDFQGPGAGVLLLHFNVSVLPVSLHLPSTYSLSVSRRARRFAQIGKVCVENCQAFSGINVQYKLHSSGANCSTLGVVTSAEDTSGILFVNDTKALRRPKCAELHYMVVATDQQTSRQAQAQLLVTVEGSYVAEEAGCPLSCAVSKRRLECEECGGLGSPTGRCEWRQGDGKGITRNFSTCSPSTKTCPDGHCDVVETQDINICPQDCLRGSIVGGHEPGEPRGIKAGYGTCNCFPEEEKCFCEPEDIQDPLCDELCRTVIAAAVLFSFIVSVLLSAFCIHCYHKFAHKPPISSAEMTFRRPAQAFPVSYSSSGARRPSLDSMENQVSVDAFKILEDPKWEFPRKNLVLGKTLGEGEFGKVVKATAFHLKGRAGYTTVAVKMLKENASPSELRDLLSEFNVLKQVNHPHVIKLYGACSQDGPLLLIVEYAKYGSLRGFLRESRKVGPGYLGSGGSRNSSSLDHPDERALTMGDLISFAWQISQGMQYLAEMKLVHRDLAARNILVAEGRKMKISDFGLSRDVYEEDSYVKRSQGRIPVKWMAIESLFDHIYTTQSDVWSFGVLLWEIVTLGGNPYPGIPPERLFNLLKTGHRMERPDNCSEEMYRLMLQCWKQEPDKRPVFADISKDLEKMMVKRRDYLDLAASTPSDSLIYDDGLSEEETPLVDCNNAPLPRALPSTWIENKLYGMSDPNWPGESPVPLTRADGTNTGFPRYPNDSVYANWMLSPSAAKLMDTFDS
# Tyrosine-protein kinase Fyn, sequence (P06241 whole entry): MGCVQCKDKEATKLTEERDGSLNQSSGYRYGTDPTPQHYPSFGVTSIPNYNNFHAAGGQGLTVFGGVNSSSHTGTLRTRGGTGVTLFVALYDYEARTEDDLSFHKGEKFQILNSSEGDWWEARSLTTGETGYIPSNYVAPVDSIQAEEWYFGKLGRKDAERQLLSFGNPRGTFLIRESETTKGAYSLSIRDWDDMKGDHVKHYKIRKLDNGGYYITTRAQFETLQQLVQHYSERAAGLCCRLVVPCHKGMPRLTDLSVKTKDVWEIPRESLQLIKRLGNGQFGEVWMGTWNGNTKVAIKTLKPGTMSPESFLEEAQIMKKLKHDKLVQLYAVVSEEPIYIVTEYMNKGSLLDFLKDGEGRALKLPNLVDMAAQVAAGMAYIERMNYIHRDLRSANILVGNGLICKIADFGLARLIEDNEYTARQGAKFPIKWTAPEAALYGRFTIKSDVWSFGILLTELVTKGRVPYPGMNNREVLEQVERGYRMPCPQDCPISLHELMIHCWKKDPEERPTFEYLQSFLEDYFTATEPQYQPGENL
# Cyclin-dependent kinase 9, sequence (P50750 whole entry): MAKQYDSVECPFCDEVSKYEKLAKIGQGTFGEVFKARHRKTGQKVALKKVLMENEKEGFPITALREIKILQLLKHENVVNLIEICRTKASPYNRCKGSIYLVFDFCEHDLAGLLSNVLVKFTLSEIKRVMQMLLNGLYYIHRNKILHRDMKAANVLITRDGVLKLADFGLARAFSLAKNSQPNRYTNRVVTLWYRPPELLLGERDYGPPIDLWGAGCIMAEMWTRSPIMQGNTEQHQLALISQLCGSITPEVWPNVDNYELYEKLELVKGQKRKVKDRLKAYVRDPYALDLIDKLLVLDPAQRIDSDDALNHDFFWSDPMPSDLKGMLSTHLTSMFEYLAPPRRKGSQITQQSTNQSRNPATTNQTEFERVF
# Serine/threonine-protein kinase Nek2, sequence (P51955 whole entry): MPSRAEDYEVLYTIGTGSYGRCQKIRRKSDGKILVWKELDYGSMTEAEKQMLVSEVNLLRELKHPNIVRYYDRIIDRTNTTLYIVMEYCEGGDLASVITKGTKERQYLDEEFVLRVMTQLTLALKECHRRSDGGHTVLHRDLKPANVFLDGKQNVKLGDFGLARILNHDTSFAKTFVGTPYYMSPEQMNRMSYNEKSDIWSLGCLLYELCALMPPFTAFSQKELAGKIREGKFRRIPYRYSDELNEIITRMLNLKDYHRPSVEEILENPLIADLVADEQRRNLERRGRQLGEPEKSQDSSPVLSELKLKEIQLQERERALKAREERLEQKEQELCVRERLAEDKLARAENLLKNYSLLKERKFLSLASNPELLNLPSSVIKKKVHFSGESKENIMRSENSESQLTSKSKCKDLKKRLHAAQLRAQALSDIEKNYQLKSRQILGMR
# Dual specificity protein kinase CLK2, sequence (P49760 whole entry): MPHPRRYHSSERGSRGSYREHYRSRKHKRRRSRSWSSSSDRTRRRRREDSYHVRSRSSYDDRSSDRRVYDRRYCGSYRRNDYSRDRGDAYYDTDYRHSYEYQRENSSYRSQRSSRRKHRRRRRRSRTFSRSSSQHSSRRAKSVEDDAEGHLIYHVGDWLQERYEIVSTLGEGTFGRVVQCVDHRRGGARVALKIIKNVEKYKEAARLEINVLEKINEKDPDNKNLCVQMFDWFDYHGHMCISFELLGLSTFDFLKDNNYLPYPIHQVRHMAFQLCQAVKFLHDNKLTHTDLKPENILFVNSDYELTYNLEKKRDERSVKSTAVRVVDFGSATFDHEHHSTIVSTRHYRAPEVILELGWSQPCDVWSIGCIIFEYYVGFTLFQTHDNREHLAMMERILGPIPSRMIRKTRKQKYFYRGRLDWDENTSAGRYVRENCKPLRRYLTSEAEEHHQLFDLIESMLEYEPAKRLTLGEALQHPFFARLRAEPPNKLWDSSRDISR
# Serine/threonine-protein kinase PAK 4, sequence (O96013 whole entry): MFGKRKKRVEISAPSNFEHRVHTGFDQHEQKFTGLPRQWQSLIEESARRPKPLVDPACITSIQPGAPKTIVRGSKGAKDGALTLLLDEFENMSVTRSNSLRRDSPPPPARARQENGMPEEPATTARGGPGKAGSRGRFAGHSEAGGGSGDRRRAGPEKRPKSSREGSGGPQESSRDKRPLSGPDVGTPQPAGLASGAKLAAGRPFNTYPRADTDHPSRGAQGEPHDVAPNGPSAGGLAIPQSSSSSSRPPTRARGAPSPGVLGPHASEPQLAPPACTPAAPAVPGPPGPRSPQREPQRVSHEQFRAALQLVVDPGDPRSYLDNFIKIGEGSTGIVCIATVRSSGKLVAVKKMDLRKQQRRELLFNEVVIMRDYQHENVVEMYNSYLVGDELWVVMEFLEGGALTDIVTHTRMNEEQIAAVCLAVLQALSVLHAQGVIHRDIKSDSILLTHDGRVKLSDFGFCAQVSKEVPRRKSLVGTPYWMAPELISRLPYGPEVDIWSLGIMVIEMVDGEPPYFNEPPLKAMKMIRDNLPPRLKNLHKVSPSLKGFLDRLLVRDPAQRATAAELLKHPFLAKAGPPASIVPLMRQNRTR
# Dual specificity protein phosphatase 3, sequence (P51452 whole entry): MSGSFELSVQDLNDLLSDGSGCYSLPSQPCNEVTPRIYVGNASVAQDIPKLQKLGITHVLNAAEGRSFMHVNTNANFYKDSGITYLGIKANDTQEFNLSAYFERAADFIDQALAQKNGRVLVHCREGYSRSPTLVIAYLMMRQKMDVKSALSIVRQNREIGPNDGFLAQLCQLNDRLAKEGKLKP
SMILES,IC50 (Caspase-3),AC50 [1],IC50 (Genome polyprotein),EC50 (HEK293),IC50 [2],Ki [3],Ki [4],Ki [5],Ki [6],Ki [7],Ki [8],Ki [9],Ki [10],Ki [11],Ki [12]
O=C(NNc1cc(N2CCCC2)nc(N2CCCC2)n1)c1ccc([N+](=O)[O-])cc1,16.5 µM (active),13.7 µM (active),,,,,,,,,,,,,
O=S(=O)(O)c1cccc2c(N=Nc3ccc(O)c4ncccc34)cccc12,,7.57 µM (active),34.8 µM (active),5.53 µM (active),1.7 µM (active),,,,,,,,,,
O=C(Cc1cccs1)Nc1nc2ccccc2s1,,,,,,5.01 µM (active),0.316 µM (active),2.51 µM (active),> 5.01 µM (inactive),1.58 µM (active),3.16 µM (active),> 3.98 µM (inactive),0.251 µM (active),1 µM (active),> 2 µM (inactive)
